{"source": "patent US20210063413A1", "about": "“DENDRITIC CELL POTENCY ASSAY” (MEDIGENE IMMUNOTHERAPIES GMBH, priority 2017, published 2021)", "test_system": "dendritic cells", "assay": "IL-10/IL-12 secretion of stimulated dendritic cells (ELISA / ELISPOT) compared with the conventional Signal 3 Assay", "format": "cell-based, human", "conditions": "especially immature DCs (iDCs) and Jonuleit maturated DCs; FIG. 4 ELISA, FIG. 5 ELISPOT", "method": "Monocytes are isolated with adherent isolation followed by dendritic cell generation for 3 days using IL-4 and GMSCF. Afterwards dendritic cells were maturated with MDG cocktail and IL-4 and GMCSF for 24 h. In case of Jonuleit cocktails cells were incubated for 6 days using IL-4 and GMSCF. Then cells where incubated with the Jonuleit cocktail (and IL-4 and GMCSF) for 24 h. For all assays, frozen dendritic cells were used thawed the day before the assay and incubated in DC medium until assay start. Stimulation is carried out for 24 h in a 96 well plate. Therefore, 11,000 dendritic cells were seeded per well. 1.1 μl CD40L in 110 μl DC Medium (VLE RPMI 1640 with 1.5% human serum) 1 μg/ml LPS and R848 were added.\nElisa assay was performed according to the protocols of the human IL-10, IL12p70 respectively, DuoSet ELISA-Kit (R&D Systems, Inc, Minneapolis, USA).\nThe IL-10/IL-12 Elispot assay was carried out according to the protocol of the Human IL-10/IL-12 Double-Color ELISPOT kit of (C.T.L. Cellular technology Limited, Cleaveland, USA)", "data": [{"smiles": "CCOCc1nc2c(N)nc3ccccc3c2n1CC(C)(C)O", "note": "[R848, 4-amino-2-ethoxymethyl-α,α-dimethyl-1H-imidazol[4,5-c]quinoline-1-ethanol]", "values": [{"measurement": "IL-10 secretion with R848 as costimulatory reagent added to CD40L", "result": "necessary as a costimulatory reagent for optimal IL-10 secretion"}]}]}
